Columns and labels:
Ikaros = Ikaros (Homo sapiens, UniProt Q13422+Q96SW2); experiment: Helios Cellular Degradation Assay (Ikaros readout); format: cell-based; set-up: endogenous in cells; host or cells: Jurkat; details: Jurkat cells, 72 h incubation, Ikaros-Alexa488 antibody staining, flow cytometry; read-out: Ikaros Jurkat IC50
Experimental: (§1) Jurkat cells were plated at 80,000 cells/well in 40 μL RPMI+10% FBS in a 384 well cell culture plate prior to using acoustic dispensing technology for adding compound of interest. Cell cultures were incubated for 72 h at 37° C. and 5% C02. In order to facilitate analysis, cell cultures were spun down at 200 rpm for 5 min and the supernatant was discarded. After shaking the plate to dislodge the cell pellet, cells were resuspended in 50 μL of Fixation Buffer (eBioScience FoxP3 buffer set 00-5523-00) for 60 min at room temperature. After centrifuging and discarding the supernatant, cells were permeabilized with 50 μL of Permeabilization buffer (eBioScience FoxP3 buffer set 00-5523-00) for 10 min at room temperature. Following permeabilization, cells were spun down and the supernatant was replaced with 20 μL fluorescently labelled antibodies against Helios, Ikaros and Aiolos or corresponding Isotype controls in 1× Permeabilization buffer (Ikaros-Alexa488 [Biolegend, Cat #368408, 1:50], Helios-PE [CST, Cat #29360, 1:50], Aiolos-Alexa647 [Biolegend, Cat #371106Biolegend, 1:25]) and staining reactions were incubated for 1 h at room temperature; protected from light. Subsequently, 30 μL of 1× Permeabilization buffer was added prior to centrifuging the cells and discarding the supernatant. Stained cells were resuspended in 25 μL of flow cytometry staining buffer (PBS+0.2% BSA) and analyzed using an Intellicyt Ique Plus flow cytometer.

Helios = Helios (Homo sapiens, UniProt Q96SW2+Q9UKS7); experiment: Helios Cellular Degradation Assay (Helios readout); format: cell-based; set-up: endogenous in cells; host or cells: Jurkat; details: Jurkat cells, 72 h incubation, Helios-PE antibody staining, flow cytometry; read-out: Helios Jurkat IC50
Experimental: as §1

Sequence of Helios (Q9UKS7 whole entry): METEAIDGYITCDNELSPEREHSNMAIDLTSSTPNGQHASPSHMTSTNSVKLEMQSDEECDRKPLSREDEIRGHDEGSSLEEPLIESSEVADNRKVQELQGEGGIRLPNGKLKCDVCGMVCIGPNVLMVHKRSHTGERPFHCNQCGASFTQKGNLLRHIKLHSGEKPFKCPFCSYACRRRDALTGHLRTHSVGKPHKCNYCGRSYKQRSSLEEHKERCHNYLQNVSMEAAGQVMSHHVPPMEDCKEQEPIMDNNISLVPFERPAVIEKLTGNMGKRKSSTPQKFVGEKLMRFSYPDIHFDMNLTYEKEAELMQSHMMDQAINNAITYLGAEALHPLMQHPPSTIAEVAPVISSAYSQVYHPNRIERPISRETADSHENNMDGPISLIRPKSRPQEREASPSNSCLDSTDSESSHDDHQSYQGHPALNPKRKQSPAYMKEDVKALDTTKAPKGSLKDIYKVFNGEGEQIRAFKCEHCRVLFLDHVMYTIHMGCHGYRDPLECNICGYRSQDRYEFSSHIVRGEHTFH
Sequence of Helios (Q96SW2 whole entry): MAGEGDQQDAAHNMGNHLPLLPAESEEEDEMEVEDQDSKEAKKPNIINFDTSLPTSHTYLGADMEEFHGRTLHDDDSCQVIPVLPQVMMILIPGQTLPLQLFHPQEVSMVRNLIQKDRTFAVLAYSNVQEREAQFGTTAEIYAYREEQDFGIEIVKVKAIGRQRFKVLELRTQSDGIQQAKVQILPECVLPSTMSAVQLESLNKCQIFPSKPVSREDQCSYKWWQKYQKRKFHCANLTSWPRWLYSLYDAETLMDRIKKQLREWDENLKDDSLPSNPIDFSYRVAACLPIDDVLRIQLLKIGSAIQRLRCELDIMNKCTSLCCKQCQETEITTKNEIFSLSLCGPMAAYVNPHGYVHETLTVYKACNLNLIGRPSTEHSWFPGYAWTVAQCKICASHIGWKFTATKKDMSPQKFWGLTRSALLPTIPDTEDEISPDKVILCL
Sequence of Helios (Q16531 whole entry partner): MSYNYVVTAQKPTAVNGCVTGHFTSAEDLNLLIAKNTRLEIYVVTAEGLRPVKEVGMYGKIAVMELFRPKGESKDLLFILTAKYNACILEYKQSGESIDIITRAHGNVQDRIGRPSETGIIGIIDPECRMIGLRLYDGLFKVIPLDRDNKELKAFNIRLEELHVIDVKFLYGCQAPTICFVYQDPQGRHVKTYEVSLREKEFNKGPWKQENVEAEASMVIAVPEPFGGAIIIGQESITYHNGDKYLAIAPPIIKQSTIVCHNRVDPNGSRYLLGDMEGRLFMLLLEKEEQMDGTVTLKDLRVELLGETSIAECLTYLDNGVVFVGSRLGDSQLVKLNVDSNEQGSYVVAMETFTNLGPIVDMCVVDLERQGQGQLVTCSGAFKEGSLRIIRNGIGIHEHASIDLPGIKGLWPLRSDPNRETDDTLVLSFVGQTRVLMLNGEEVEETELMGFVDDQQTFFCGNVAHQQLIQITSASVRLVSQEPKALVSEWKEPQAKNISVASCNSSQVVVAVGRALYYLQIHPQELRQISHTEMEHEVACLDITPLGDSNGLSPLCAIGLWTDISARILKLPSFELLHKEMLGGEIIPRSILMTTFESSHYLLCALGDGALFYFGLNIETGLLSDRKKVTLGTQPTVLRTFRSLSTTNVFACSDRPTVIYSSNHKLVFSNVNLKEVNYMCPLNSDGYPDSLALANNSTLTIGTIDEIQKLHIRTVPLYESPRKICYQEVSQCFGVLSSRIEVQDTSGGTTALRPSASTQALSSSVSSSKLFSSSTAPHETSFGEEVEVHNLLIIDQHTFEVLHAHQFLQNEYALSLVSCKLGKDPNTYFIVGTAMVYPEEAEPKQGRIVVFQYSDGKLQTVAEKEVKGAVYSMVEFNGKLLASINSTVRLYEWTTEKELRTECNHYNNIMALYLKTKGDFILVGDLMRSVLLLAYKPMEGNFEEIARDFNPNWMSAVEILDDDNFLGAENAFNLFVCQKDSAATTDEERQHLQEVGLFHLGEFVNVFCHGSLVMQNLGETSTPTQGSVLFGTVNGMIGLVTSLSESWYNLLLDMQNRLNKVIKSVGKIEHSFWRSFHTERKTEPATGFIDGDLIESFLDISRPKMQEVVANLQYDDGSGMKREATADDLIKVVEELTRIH
Sequence of Ikaros (Q13422 whole entry): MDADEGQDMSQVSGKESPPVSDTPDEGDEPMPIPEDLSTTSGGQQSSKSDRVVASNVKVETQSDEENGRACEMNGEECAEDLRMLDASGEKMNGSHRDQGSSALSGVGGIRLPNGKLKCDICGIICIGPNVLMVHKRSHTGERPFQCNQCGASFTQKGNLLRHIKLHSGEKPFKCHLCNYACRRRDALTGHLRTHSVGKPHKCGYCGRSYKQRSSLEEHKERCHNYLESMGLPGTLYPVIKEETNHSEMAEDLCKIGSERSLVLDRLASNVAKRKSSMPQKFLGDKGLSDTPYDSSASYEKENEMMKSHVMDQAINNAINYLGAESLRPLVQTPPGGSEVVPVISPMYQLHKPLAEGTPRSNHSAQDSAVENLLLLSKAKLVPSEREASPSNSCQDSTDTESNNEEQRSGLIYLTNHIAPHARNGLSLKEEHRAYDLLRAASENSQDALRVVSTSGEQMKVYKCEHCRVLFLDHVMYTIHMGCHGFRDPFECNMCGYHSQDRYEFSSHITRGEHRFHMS
Sequence of Ikaros (Q96SW2 whole entry): as the sequence (Q96SW2 whole entry) above
Sequence of Ikaros (Q16531 whole entry partner): as the sequence (Q16531 whole entry partner) above

Row | DC50 (Ikaros) [nM] | DC50 (Helios) [nM] | Structure (SMILES)
1 | 160 | 15 | O=Cc1cc2c(-c3ccc4c(c3)CN(C3CCC(=O)NC3=O)C4=O)nccc2s1 (stereo not shown) [Example 60, 4-[2-(2,6-dioxopiperidin-3-yl)-1-oxo-2,3-dihydro-1H-isoindol-5-yl]thieno[3,2-c]pyridine-2-carbaldehyde]
2 | > 20000 | 120 | COc1cccc2ccc(-c3ccc4c(c3)CN(C3CCC(=O)NC3=O)C4=O)nc12 (stereo not shown) [Example 33, 3-[5-(8-methoxyquinolin-2-yl)-1-oxo-2,3-dihydro-1H-isoindol-2-yl]piperidine-2,6-dione]
3 | ≥ 10000 | 1130 | O=C1CCC(N2Cc3cc(-c4ncccc4CO)ccc3C2=O)C(=O)N1 (stereo not shown) [Example 107, 3-(5-(3-(hydroxymethyl)pyridin-2-yl)-1-oxoisoindolin-2-yl)piperidine-2,6-dione]
4 | ≥ 20000 | 500 | COc1nc(-c2ccc3c(c2)CN(C2CCC(=O)NC2=O)C3=O)cc2ccccc12 (stereo not shown) [Example 156, 3-[5-(1-Methoxyisoquinolin-3-yl)-1-oxo-2,3-dihydro-1H-isoindol-2-yl]piperidine-2,6-dione]
5 | 8100 | 1000 | CC(=O)N1CCN(c2nc(-c3ccc4c(c3)CN(C3CCC(=O)NC3=O)C4=O)nc3ncccc23)CC1 (stereo not shown) [Example 55, 3-(5-(4-(4-acetylpiperazin-1-yl)pyrido[2,3-d]pyrimidin-2-yl)-1-oxoisoindolin-2-yl)piperidine-2,6-dione]
6 | > 20000 | > 20000 | COC(=O)c1ccc2cnc(-c3ccc4c(c3)CN(C3CCC(=O)NC3=O)C4=O)nc2c1 (stereo not shown) [Example 41, methyl 2-[2-(2,6-dioxopiperidin-3-yl)-1-oxo-2,3-dihydro-1H-isoindol-5-yl]quinazoline-7-carboxylate]
7 | > 20000 | > 20000 | N#Cc1ccc(-c2ccc3c(c2)CN(C2CCC(=O)NC2=O)C3=O)nn1 (stereo not shown) [Example 77, 6-[2-(2,6-Dioxopiperidin-3-yl)-1-oxo-2,3-dihydro-1H-isoindol-5-yl]pyridazine-3-carbonitrile]
8 | 8400 | 48 | Nc1cc2ccccc2c(-c2ccc3c(c2)CN(C2CCC(=O)NC2=O)C3=O)n1 (stereo not shown) [Example 25, 3-[5-(3-aminoisoquinolin-1-yl)-1-oxo-2,3-dihydro-1H-isoindol-2-yl]piperidine-2,6-dione]
9 | > 20000 | 19 | O=C1CCC(N2Cc3cc(-c4ccc5cc(O)ccc5n4)ccc3C2=O)C(=O)N1 (stereo not shown) [Example 40, 3-[5-(6-hydroxyquinolin-2-yl)-1-oxo-2,3-dihydro-1H-isoindol-2-yl]piperidine-2,6-dione]
10 | ≥ 20000 | 210 | O=C1CCC(N2Cc3cc(-c4nccc5ncccc45)ccc3C2=O)C(=O)N1 (stereo not shown) [Example 100, 3-(5-(1,6-naphthyridin-5-yl)-1-oxoisoindolin-2-yl)piperidine-2,6-dione]
11 | ≥ 20000 | 4160 | O=C1CCC(N2Cc3cc(-c4ccc5[nH]cnc5n4)ccc3C2=O)C(=O)N1 (stereo not shown) [Example 139, 3-(5-(1H-imidazo[4,5-b]pyridin-5-yl)-1-oxoisoindolin-2-yl)piperidine-2,6-dione]
12 | > 20000 | 22 | O=C1CCC(N2Cc3cc(-c4ccc5cc(F)ccc5n4)ccc3C2=O)C(=O)N1 (stereo not shown) [Example 38, 3-[5-(6-fluoroquinolin-2-yl)-1-oxo-2,3-dihydro-1H-isoindol-2-yl]piperidine-2,6-dione]
13 | > 20000 | 75 | O=C1CCC(N2Cc3cc(-c4nccc(-c5ccccc5)n4)ccc3C2=O)C(=O)N1 (stereo not shown) [Example 71, 3-(1-oxo-5-(4-phenylpyrimidin-2-yl)isoindolin-2-yl)piperidine-2,6-dione]
14 | ≥ 20000 | 10 | COc1cnc(-c2ccc3c(c2)CN(C2CCC(=O)NC2=O)C3=O)c2ccccc12 (stereo not shown) [Example 103, 3-(5-(4-methoxyisoquinolin-1-yl)-1-oxoisoindolin-2-yl)piperidine-2,6-dione]
15 | ≥ 20000 | 140 | Cc1c(-c2ccc3c(c2)CN(C2CCC(=O)NC2=O)C3=O)nc(N)c2ccccc12 (stereo not shown) [Example 131, 3-[5-(1-amino-4-methylisoquinolin-3-yl)-1-oxo-2,3-dihydro-1H-isoindol-2-yl]piperidine-2,6-dione]
16 | > 20000 | 480 | Cc1cc2ccccc2nc1-c1ccc2c(c1)CN(C1CCC(=O)NC1=O)C2=O (stereo not shown) [Example 32, 3-[5-(3-methylquinolin-2-yl)-1-oxo-2,3-dihydro-1H-isoindol-2-yl]piperidine-2,6-dione]

The remaining lines, values behind:

Row | Structure (SMILES) | DC50 (Ikaros) [nM] | DC50 (Helios) [nM]
17 | Nc1cc(CCl)cc(-c2ccc3c(c2)CN(C2CCC(=O)NC2=O)C3=O)n1 (stereo not shown) [Example 135, 3-{5-[6-amino-4-(chloromethyl)pyridin-2-yl]-1-oxo-2,3-dihydro-1H-isoindol-2-yl}piperidine-2,6-dione] | ≥ 10000 | 230
18 | Cc1cnc(-c2ccc3c(c2)CN(C2CCC(=O)NC2=O)C3=O)cc1C (stereo not shown) [Example 121, 3-(5-(4,5-dimethylpyridin-2-yl)-1-oxoisoindolin-2-yl)piperidine-2,6-dione] | 1280 | 40
19 | N#Cc1ccc(-c2ccc3c(c2)CN(C2CCC(=O)NC2=O)C3=O)nc1N (stereo not shown) [Example 166, 2-amino-6-(2-(2,6-dioxopiperidin-3-yl)-1-oxoisoindolin-5-yl)nicotinonitrile] | ≥ 20000 | 20
20 | O=C1CCC(N2Cc3cc(-c4ncc(F)c5[nH]ccc45)ccc3C2=O)C(=O)N1 (stereo not shown) [Example 11, 3-(5-{7-fluoro-1H-pyrrolo[3,2-c]pyridin-4-yl}-1-oxo-2,3-dihydro-1H-isoindol-2-yl)piperidine-2,6-dione] | 97 | 42
21 | Nc1cc(C(F)(F)F)cc(-c2ccc3c(c2)CN(C2CCC(=O)NC2=O)C3=O)n1 (stereo not shown) [Example 120, 3-(5-(6-amino-4-(trifluoromethyl)pyridin-2-yl)-1-oxoisoindolin-2-yl)piperidine-2,6-dione] | ≥ 10000 | 70
22 | Nc1nc(-c2ccccc2)nc(-c2ccc3c(c2)CN(C2CCC(=O)NC2=O)C3=O)n1 (stereo not shown) [Example 73, 3-(5-(4-amino-6-phenyl-1,3,5-triazin-2-yl)-1-oxoisoindolin-2-yl)piperidine-2,6-dione] | 450 | 67
23 | Nc1nc(-c2ccc3c(c2)CN(C2CCC(=O)NC2=O)C3=O)cc2[nH]ccc(=O)c12 (stereo not shown) [Example 47, 3-[5-(5-Amino-4-oxo-1,4-dihydro-1,6-naphthyridin-7-yl)-1-oxo-2,3-dihydro-1H-isoindol-2-yl]piperidine-2,6-dione] | > 20000 | 220
24 | Cc1cc(-c2ccc3c(c2)CN(C2CCC(=O)NC2=O)C3=O)ncc1C#N (stereo not shown) [Example 152, 6-(2-(2,6-dioxopiperidin-3-yl)-1-oxoisoindolin-5-yl)-4-methylnicotinonitrile] | ≥ 10000 | 760
25 | Cc1ccc2nc(-c3ccc4c(c3)CN(C3CCC(=O)NC3=O)C4=O)ccc2c1 (stereo not shown) [Example 39, 3-[5-(6-methylquinolin-2-yl)-1-oxo-2,3-dihydro-1H-isoindol-2-yl]piperidine-2,6-dione] | > 20000 | 25
26 | O=C1CCC(N2Cc3cc(-c4ncc5ccccc5n4)ccc3C2=O)C(=O)N1 (stereo not shown) [Example 9, 3-[1-oxo-5-(quinazolin-2-yl)-2,3-dihydro-1H-isoindol-2-yl]piperidine-2,6-dione] | > 20000 | 27
27 | O=C1CCC(N2Cc3cc(-c4nccc(-c5ccccn5)n4)ccc3C2=O)C(=O)N1 (stereo not shown) [Example 75, 3-(1-oxo-5-(4-(pyridin-2-yl)pyrimidin-2-yl)isoindolin-2-yl)piperidine-2,6-dione] | > 20000 | 1200
28 | CC(=O)Nc1cc2ccccc2c(-c2ccc3c(c2)CN([C@H]2CCC(=O)NC2=O)C3=O)n1 [Example 124, (S)—N-(1-(2-(2,6-dioxopiperidin-3-yl)-1-oxoisoindolin-5-yl)isoquinolin-3-yl)acetamide] | ≥ 20000 | 80
29 | COc1ccc2c(-c3ccc4c(c3)CN(C3CCC(=O)NC3=O)C4=O)nccc2c1 (stereo not shown) [Example 17, 3-[5-(6-methoxyisoquinolin-1-yl)-1-oxo-2,3-dihydro-1H-isoindol-2-yl]piperidine-2,6-dione] | 96 | 14
30 | O=C1CCC(N2Cc3cc(-c4ncc(Br)c5cc[nH]c45)ccc3C2=O)C(=O)N1 (stereo not shown) [Example 56, 3-(5-{4-bromo-1H-pyrrolo[2,3-c]pyridin-7-yl}-1-oxo-2,3-dihydro-1H-isoindol-2-yl) piperidine-2,6-dione] | 49 | 27
31 | Nc1nc2ccccc2nc1-c1ccc2c(c1)CN(C1CCC(=O)NC1=O)C2=O (stereo not shown) [Example 5, 3-[5-(3-aminoquinoxalin-2-yl)-1-oxo-2,3-dihydro-1H-isoindol-2-yl]piperidine-2,6-dione] | > 20000 | > 20000
32 | N#Cc1cc(N)nc(-c2ccc3c(c2)CN(C2CCC(=O)NC2=O)C3=O)c1 (stereo not shown) [Example 149, 2-amino-6-(2-(2,6-dioxopiperidin-3-yl)-1-oxoisoindolin-5-yl)isonicotinonitrile] | ≥ 10000 | 190

From patent publication US12570671B2 (BRISTOL-MYERS SQUIBB COMPANY, priority 2020, dated 2026)
